Source: US20100144606A1, “COMBINATION 408” (AstraZeneca AB, priority 2008, published 2010)
Structures can show the parent of a compound that is named as a salt.

Legend:
β2 adrenoceptor = target: T1, β2 adrenoceptor (Homo sapiens, UniProt P07550); assay: Adrenergic β mediated cAMP production in H292 cells (AlphaScreen); format: cell-based; conditions: Intrinsic Activity as a fraction relative to the maximum activity of formoterol
T1 construct: Adherent H292 cells were removed from tissue culture flasks; endogenous in cells; host or cells: H292 cells
T1 sequence (P07550 whole entry): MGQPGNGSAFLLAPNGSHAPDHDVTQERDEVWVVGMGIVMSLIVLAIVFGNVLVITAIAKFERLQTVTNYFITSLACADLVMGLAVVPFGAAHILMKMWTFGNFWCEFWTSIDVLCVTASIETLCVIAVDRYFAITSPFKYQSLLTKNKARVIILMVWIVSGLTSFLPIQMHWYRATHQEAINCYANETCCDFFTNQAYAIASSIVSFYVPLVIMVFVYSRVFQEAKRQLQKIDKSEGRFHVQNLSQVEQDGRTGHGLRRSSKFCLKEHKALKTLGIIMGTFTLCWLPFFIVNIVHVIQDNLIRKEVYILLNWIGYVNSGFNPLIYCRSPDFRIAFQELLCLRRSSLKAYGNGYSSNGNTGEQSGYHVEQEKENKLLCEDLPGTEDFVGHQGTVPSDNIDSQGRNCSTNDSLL
Protocol: Adrenergic β Mediated cAMP Production.
Cell preparation. H292 cells were grown in 225 cm2 flasks incubator at 37° C., 5% CO2 in RPMI medium containing, 10% (v/v) FBS (foetal bovine serum) and 2 mM L-glutamine.
Experimental Method. Adherent H292 cells were removed from tissue culture flasks by treatment with Accutase™ cell detachment solution for 15 minutes. Flasks were incubated for 15 minutes in a humidified incubator at 37° C., 5% CO2. Detached cells were re-suspended in RPMI media (containing 10% (v/v) FBS and 2 mM L-glutamine) at 0.05×10^6 cells per mL. 5000 cells in 100 μL were added to each well of a tissue-culture-treated 96-well plate and the cells incubated overnight in a humidified incubator at 37° C., 5% CO2. […]
AlphaScreen™ cAMP detection. The concentration of cAMP (cyclic adenosine monophosphate) in the cell lysate was determined using AlphaScreen™ methodology. […] The AlphaScreen™ signal was measured using an EnVision spectrophotometer (Perkin-Elmer Inc.) with the recommended manufacturer's settings. cAMP concentrations were determined by reference to a calibration curve determined in the same experiment using standard cAMP concentrations. […] Intrinsic Activity was expressed as a fraction relative to the maximum activity determined for formoterol in each experiment. […]

[1] = Gravimetric Vapour Sorption (GVS); format: physicochemical; conditions: at 80% RH (±0.2%)
Protocol: Instrument Details: • X-Ray Powder Diffraction (XRPD)—PANalytical X'Pert machine in 2Ø-Ø configuration or a PANalytical Cubix machine in Ø-Ø configuration over the scan range 2° to 40° 2Ø with 100-second exposure per 0.02° increment. The X-rays were generated by a copper long-fine focus tube operated at 45 kV and 40 mA. […] The Data was collected on zero background holders on which ˜2 mg of the compound was placed. The holder was made from a single crystal of silicon, which had been cut along a non-diffracting plane and then polished on an optically flat finish. The X-rays incident upon this surface were negated by Bragg extinction. • Differential Scanning Calorimetry (DSC) thermograms were measured using a TA Q1000 Differential Scanning Calorimeter, with aluminium pans and pierced lids. The sample weights varied between 0.5 to 5 mg. The procedure was carried out under a flow of nitrogen gas (50 mL/min) and the temperature studied from 30 to 230° C. at a constant rate of temperature increase of 10° C. per minute. • Gravimetric Vapour Sorption (GVS) profiles were measured using a Surface Measurements Systems Dynamic Vapour Sorption DVS-1 or a DVS Advantage instrument. The solid sample ca. 1-5 mg was placed into a glass vessel and the weight of the sample was recorded during a dual cycle step method (40 to 90 to 0 to 90 to 0% relative humidity (RH), in steps of 10% RH).

guinea pig trachea = assay: Bronchodilator activity in the guinea pig isolated tracheal ring preparation; format: cell-based; conditions: 60 min, methacholine (1 μM) contracted, mean±s.e.mean
Protocol: Evaluation of Bronchodilator Activity in the Guinea Pig Isolated Tracheal Ring Preparation
Guinea pigs (300-500 g) were killed by cervical dislocation and the trachea was isolated. The trachea was cut into segments 2-3 cartilage rings in width and suspended in 10 ml organ baths in modified Krebs' solution (mM; NaCl, 90; NaHCO3, 45; KCl, 5; MgSO4.7H2O, 0.5; Na2HPO4.2H2O, 1; CaCl2, 2.25; glucose, 10; pH 7.4 gassed with 5% CO2, 95% O2 at 37° C.). The tracheal rings were attached to an isometric force transducer for the measurement of isometric tension. The tissues were washed and a force of 1 g was applied to each tissue. The rings were contracted with methacholine (1 μM). Once the contraction had reached a plateau, vehicle (0.01% DMSO in distilled H2O), compound W (1 nM or 3 nM), compound X (1 nM), compound Y (1 nM), a combination of compound W (3 nM) and compound X (1 nM), or a combination of compound W (1 nM) and compound Y (1 nM) was added and the tissue left for 60 min. The tension was measured in each ring at 60 min following compound addition and was expressed as a % relaxation of the constriction to methacholine (1 μM) (mean±s.e.mean). Data were collected using the Chart 4 software (ADInstruments, Charlgrove, UK).

Compound: O=C(CCNCCc1cccc(F)c1)N(CCNCCc1ccc(O)c2[nH]c(=O)sc12)C1CCCCC1 [Preparation 2, N-Cyclohexyl-N^3-[2-(3-fluorophenyl)ethyl]-N-(2-{[2-(4-hydroxy-2-oxo-2,3-dihydro-1,3-benzothiazol-7-yl)ethyl]amino}ethyl)-β-alaninamide dihydrobromide salt]
- β2 Int Act (β2 adrenoceptor): 0.85

Compound: C[C@@](C(=O)O[C@H]1C[N+]2(CCc3ccc(F)cc3)CCC1CC2)(c1ccccc1)N1CCCCC1.[Br-] [Preparation 4 bromide Form A, (R)-1-[2-(4-Fluoro-phenyl)-ethyl]-3-((S)-2-phenyl-2-piperidin-1-yl-propionyloxy)-1-azonia-bicyclo[2.2.2]octane bromide (Form A)]
- GVS weight increase [1]: 0.1 % w/w

Compound: C[C@@](C(=O)O[C@H]1C[N+]2(CCc3ccc(F)cc3)CCC1CC2)(c1ccccc1)N1CCCCC1.[Br-] [Preparation 4 bromide Form C, (R)-1-[2-(4-Fluoro-phenyl)-ethyl]-3-((S)-2-phenyl-2-piperidin-1-yl-propionyloxy)-1-azonia-bicyclo[2.2.2]octane bromide (Form C)]
- GVS weight increase [1]: 4 % w/w

Compound: C[C@@](C(=O)O[C@H]1C[N+]2(CCc3ccc(F)cc3)CCC1CC2)(c1ccccc1)N1CCCCC1.Cc1ccc(S(=O)(=O)[O-])cc1 [Preparation 16, (R)-1-(4-fluorophenethyl)-3-((S)-2-phenyl-2-(piperidin-1-yl)propanoyloxy)-1-azoniabicyclo[2.2.2]octane 4-methylbenzenesulphonate]
- GVS weight increase [1]: 0.1 % w/w

Compound: C[N+](C)(CCOCc1ccc(Cl)cc1)Cc1cnc([C@](O)(c2ccccc2)C2CCCCC2)o1.C[N+](C)(CCOCc1ccc(Cl)cc1)Cc1cnc([C@](O)(c2ccccc2)C2CCCCC2)o1.O=S(=O)([O-])c1cccc2c(S(=O)(=O)[O-])cccc12 [compound X, [2-(4-Chloro-benzyloxy)-ethyl]-[2-((R)-Cyclohexyl-hydroxy-phenyl-methyl)-oxazol-5-ylmethyl]-dimethyl-ammonium hemi-napadisylate salt, reference compound]
- percentage relaxation (guinea pig trachea; 1 nM, n=4, FIG. 29): 1±0.5%

Compound: C[C@@](C(=O)O[C@H]1C[N+]2(CCc3ccc(F)cc3)CCC1CC2)(c1ccccc1)N1CCCCC1.[Br-] [compound Y, (R)-1-[2-(4-Fluoro-phenyl)-ethyl]-3-((S)-2-phenyl-2-piperidin-1-yl-propionyloxy)-1-azonia-bicyclo[2.2.2]octane bromide]
- percentage relaxation (guinea pig trachea; 1 nM, n=6, FIG. 30): 17±3.4%

Compound: N-Cyclohexyl-N^3-[2-(3-fluorophenyl)ethyl]-N-(2-{[2-(4-hydroxy-2-oxo-2,3-dihydro-1,3-benzothiazol-7-yl)ethyl]amino}ethyl)-β-alaninamide di-D-Mandelate salt [Preparation 3 (Form A)]
- percentage relaxation (guinea pig trachea; 1 nM, n=6, FIG. 30): 48±3.9%
- percentage relaxation (guinea pig trachea; 3 nM, n=4, FIG. 29): 46±10.7%
- GVS weight increase [1]: 1 % w/w
